{"source": "ChEMBL document CHEMBL4480438", "about": "“Inhibitory Properties of ATP-Competitive Coumestrol and Boldine Are Correlated to Different Modulations of CK2 Flexibility” (J Nat Prod, 2019)", "target": "Casein kinase 2 (Homo sapiens, UniProt P67870+P68400+P19784+Q8NEV1)", "experiment": "Inhibition of CK2 (unknown origin)", "format": "protein assay"}
{"smiles": "COc1cc2c(cc1O)C[C@H]1c3c(cc(O)c(OC)c3-2)CCN1C", "note": "[BOLDINE]", "values": [{"measurement": "IC50", "result": 0.7, "unit": "µM"}]}
